Cancer cells killed data for one compound are collected here from patent publication US20220177819A1, “MICROFLUIDIC SYSTEM FOR INTRACELLULAR DELIVERY OF MATERIALS AND METHOD THEREFOR” (MxT BIOTECH, priority 2019, published 2022).

The test system of this experiment is MDA-MB-231 cells. In words: DOX cytotoxicity after delivery of DOX-loaded MSNs, trypan blue exclusion. The settings on record: DOX loaded into MSNs delivered by the microfluidic system, after 6 hours. The format is cell-based. As to the method: In the experiment, doxorubicin (DOX), an anticancer drug, was loaded into MSNs and the MSNs were delivered into MDA-MB-231 cells.
Referring to FIG. 31, DOX cytotoxicity to MDA-MB-231 cells was measured by the trypan blue exclusion method, and it can be seen that approximately 85% of cancer cells were killed after 6 hours.

For the compound `COc1cccc2c1C(=O)c1c(O)c3c(c(O)c1C2=O)C[C@@](O)(C(=O)CO)C[C@@H]3O[C@H]1C[C@H](N)[C@H](O)[C@H](C)O1` [DOX, doxorubicin], the cancer cells killed result is listed as “approximately 85%”.
